{"source": "patent US7445791B2", "about": "“Synergistic insecticidal composition containing Chloronicotynyle and Organosphosphorus compounds” (priority 2004, dated 2008)", "key": {"[1]": {"settings": "cited from earlier work"}, "crop plants": {"test_system": "crop plants", "settings": "cited from earlier work"}, "[2]": {"test_system": "Brown plant hoppers and Green plant hoppers", "assay_type": "in vivo", "settings": "5 days after treatment", "method": "In this evaluation, Brown plant hoppers and Green plant hoppers are obtained from laboratory colonies. Paddy leaves are immersed in 1:1 v/v, acetone/water solutions of the test compound, or solution of a combination of the test compounds, for a period of about 4 seconds. Following immersion, leaves are allowed to air-dry for 2-3 hours. Plastic bioassay trays containing multiple open-faced wells (4.0×4.0×2.5 cm) are used. Cut portions of a treated leaf, a moistened cotton dental wick and a single third-instar larva are placed into each well. These wells are covered with an adhesive vented clear plastic sheet which is held under constant fluorescent light at about 30° C. for a predetermined period of time. Larval mortality/morbidity is evaluated at 5 days after treatment. All treatments are replicated 3-4 fold in a randomized complete block design with 15-30 larvae per treatment. Using conventional log-probit analysis, the LC50 of each treatment is determined.\nUsing the above process, a Chloronicotynyle compound may be evaluated alone and in combination with a second insecticidal compound, Imidacloprid, at dose rates of 0, 15, 18, 21, 24, 27 and 30 ppm and in combination with Acephate 0, 400, 500, 600, 700, 800 ppm in various combination of these strengths.\nSynergism can be calculated by using the Colby's method i.e. the expected (or predicted) response of the combination is calculated by taking the product of the observed response for each individual component of the combination when applied alone divided by 100 and subtracting this value from the sum of observed response for each component when applied alone. Synergism of the combination is then determined by comparing the observed response of the combination to the expected (or predicted) response as calculated from the observed response of each individual component alone. If the observed response of the combination is greater than the expected (or predicted) response then the combination is said to be synergistic and falls within the definition of synergistic effect. (Colby, S. R., Weeds, 1967(15), p. 20-22)."}, "[3]": {"settings": "20° C.; cited from earlier work"}, "[4]": {"settings": "cited from earlier work; for DT50 hydrolysis: 40° C.; for DT 50 (calculated) hydrolysis: 20° C."}, "mice": {"test_system": "mice", "settings": "cited from earlier work"}, "[5]": {"test_system": "nematodes and spider mites", "settings": "cited from earlier work"}, "[6]": {"settings": "mammals, oral administration, almost entirely in the urine; cited from earlier work"}}, "note": "Read-outs that look alike come from different tables or passages of the source.", "data": [{"compound": "(E)-N′-[(6-chloro-3-pyridyl)methyl]-N-cyano-N-methylacetamidine [Acetamiprid]", "values": [{"measurement": "solubility in organic solvents (in words)", "setting": "[1]; acetone, methanol, ethanol, dichloromethane, chloroform, acetonitrile and tetrahydrofuron", "value": "Soluble"}]}, {"compound": "COP(=O)(NC(C)=O)SC", "note": "(stereo not shown) [Acephate, O,S-dimethylacetylphosphoramidothioate]", "values": [{"measurement": "phytotoxicity to crop plants (in words)", "setting": "crop plants", "value": "non-phytotoxic to most crop plants"}, {"measurement": "Observed Mortality %", "setting": "[2]; Acephate 600 ppm alone", "value": 52.50, "unit": "%"}, {"measurement": "Observed Mortality %", "setting": "[2]; Acephate 700 ppm alone", "value": 60.00, "unit": "%"}, {"measurement": "Observed Mortality %", "setting": "[2]; Acephate 800 ppm alone", "value": 70.00, "unit": "%"}, {"measurement": "solubility in water", "setting": "[3]", "value": "about 790 g/l"}, {"measurement": "DT50 hydrolysis", "setting": "[4]; pH 3", "value": 710, "unit": "h"}, {"measurement": "DT50 hydrolysis", "setting": "[4]; pH 9", "value": 60, "unit": "h"}, {"measurement": "solubility in acetone", "setting": "[1]; 20° C.", "value": 151, "unit": "mg/mL"}, {"measurement": "solubility in benzene", "setting": "[1]; 20° C.", "value": 16, "unit": "mg/mL"}, {"measurement": "solubility in ethanol", "setting": "[1]; 20° C.", "value": "> 100", "unit": "mg/mL"}, {"measurement": "solubility in ethyl acetate", "setting": "[1]; 20° C.", "value": 35, "unit": "mg/mL"}, {"measurement": "solubility in hexane", "setting": "[1]; 20° C.", "value": 0.1, "unit": "mg/mL"}]}, {"compound": "O=[N+]([O-])NC1=NCCN1Cc1ccc(Cl)nc1", "note": "[Imidacloprid, 1-(6-chloro-3-pyridylmethyl)-N-nitroimidazolidin-2-yldeneamine]", "values": [{"measurement": "Observed Mortality %", "setting": "[2]; Imidacloprid 20 ppm alone", "value": 47.30, "unit": "%"}, {"measurement": "acute oral LD50", "setting": "mice", "value": 150, "unit": "mg/kg"}, {"measurement": "solubility in dichloromethane", "setting": "[1]; 20° C.", "value": 55, "unit": "mg/mL"}, {"measurement": "solubility in hexane", "setting": "[1]; 20° C.", "value": "< 0.1", "unit": "mg/mL"}, {"measurement": "solubility in isopropanol", "setting": "[1]; 20° C.", "value": 1.2, "unit": "mg/mL"}, {"measurement": "solubility in toluene", "setting": "[1]; 20° C.", "value": 0.68, "unit": "mg/mL"}, {"measurement": "effect on nematodes and spider mites", "setting": "[5]", "value": "no effect"}]}, {"compound": "CCN(CC)C(=O)C(Cl)=C(C)OP(=O)(OC)OC", "note": "[Phosphamidon, 2-chloro-2-diethylcarbamoyl-1-methylvinyldimethylphosphate]", "values": [{"measurement": "dose excreted within 24 hours", "setting": "[6]", "value": "85-90%"}, {"measurement": "Observed Mortality %", "setting": "[2]; Phosphamidon 320 ppm alone", "value": 60.0, "unit": "%"}, {"measurement": "Observed Mortality %", "setting": "[2]; Phosphamidon 370 ppm alone", "value": 65, "unit": "%"}, {"measurement": "Observed Mortality %", "setting": "[2]; Phosphamidon 400 ppm alone", "value": 72.0, "unit": "%"}, {"measurement": "DT 50 (calculated) hydrolysis", "setting": "[4]; pH 5", "value": 60, "unit": "days"}, {"measurement": "DT 50 (calculated) hydrolysis", "setting": "[4]; pH 7", "value": 54, "unit": "days"}, {"measurement": "DT 50 (calculated) hydrolysis", "setting": "[4]; pH 9", "value": 12, "unit": "days"}, {"measurement": "hydrolysis in alkali (in words)", "setting": "[4]; alkali", "value": "rapidly hydrolysed"}]}]}
